In patent US20050197350A1, “Novel quinoline, tetrahydroquinazoline, and pyrimidine derivatives and methods of treatment related to the use thereof” (TAISHO PHARMACEUTICAL CO., LTD., priority 2003, published 2005):
Structures can show the parent of a compound that is named as a salt. Where two headings read alike, the source gives them in different places.

Biological target: MCH receptor (Homo sapiens, UniProt Q99705)
Experiment: High throughput functional screening FLIPR/FDSS6000 (intracellular Ca2+ evoked by MCH)
Format: cell-based
Conditions: FLIPR/FDSS, antagonist activity vs 50 nM MCH
How it was run: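 For antagonist testing, compound-treated cells (30 min, 37 °C) were stimulated with 50 nM MCH and intracellular Ca2+ followed by Fluo4 fluorescence on FLIPR/FDSS6000. Receptor was a constitutively active, non-endogenous MCH receptor; dye loading 4 μM Fluo4-AM, 1 h, 37 °C.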

[1] = class by percent of control at 10^−7 M or IC50, read-out: class
[2] = class by percent of control at 10^−7 M or IC50, table after the classification, read-out: class

Compound | IC50 [1] | IC50 [2] | other results
Cc1cnc(N[C@H]2CC[C@@H](C(=O)N[C@H](C)c3ccccc3F)CC2)nc1N(C)C [Example 3294, cis-4-{[4-(dimethylamino)-5-methylpyrimidin-2-yl]aminol}-N-[(1R)-1-(2-fluorophenyl)ethyl]cyclohexanecarboxamide] | > 200 nM | – | –
COc1cc(N[C@H]2CC[C@@H](NC(=O)c3ccc(F)c(F)c3)CC2)nc2ccccc12 [Example 3116, 3,4-Difluoro-N-[cis-4-(4-methoxy-quinolin-2-ylamino)-cyclohexyl]-benzamide hydrochloride] | – | > 200 nM | –
COc1cccc(C(=O)N[C@H]2CC[C@@H](Nc3ncc(C)c(N(C)C)n3)CC2)c1 [Example 3122, N-[cis-4-(4-Dimethylamino-5-methyl-pyrimidin-2-ylamino)-cyclohexyl]-3-methoxy-benzamide hydrochloride] | – | < 50 nM | –
Cc1cnc(N[C@H]2CC[C@@H](NC(=O)c3ccc(F)c(F)c3)CC2)nc1N(C)C [Example 2524, N-(cis-4-{[4-(Dimethylamino)-5-methylpyrimidin-2-yl]amino}cyclohexyl)-3,4-difluorobenzamide hydrochloride] | – | – | IC50 (representative examples, read-out: IC50): 2.1 nM
O=C(N[C@H]1CC[C@@H](Nc2ccc3ccccc3n2)CC1)c1ccc(Cl)c(F)c1 [Example 3153, 4-Chloro-3-fluoro-N-[cis-4-(quinolin-2-ylamino)-cyclohexyl]-benzamide-hydrochloride] | – | < 50 nM | –
Cc1cc(N[C@H]2CC[C@@H](NC(=O)c3cccc(O)c3)CC2)nc2ccccc12 [Example 3160, 3-Hydroxy-N-[cis-4-(4-methyl-quinolin-2-ylamino)-cyclohexyl]-benzamide hydrochloride] | – | < 50 nM | –
Cc1cnc(N[C@H]2CC[C@@H](NC(=O)N(C)C(C)(C)c3ccc(Cl)cc3)CC2)nc1N(C)C [Example 3269, N-[1-(4-chlorophenyl)-1-methylethyl]-N′-(cis-4-{[4-(dimethylamino)-5-methylpyrimidin-2-yl]amino}cyclohexyl)-N-methylurea] | < 50 nM | – | –
Cc1cnc(N[C@H]2CC[C@@H](NC(=O)NC3(c4ccc(Cl)cc4)CC3)CC2)nc1N(C)C [Example 3266, N-[1-(4-chlorophenyl)cyclopropyl]-N′-(cis-4-{[4-(dimethylamino)-5-methylpyrimidin-2-yl]amino}cyclohexyl)urea] | < 50 nM | – | –
COc1nc(N[C@H]2CC[C@@H](NC(=O)c3ccc(Cl)c(Cl)c3)CC2)ncc1C [Example 3278, 3,4-dichloro-N-{cis-4-[(4-methoxy-5-methylpyrimidin-2-yl)amino]cyclohexyl}benzamide] | 50 to 200 nM | – | –
CN(C)c1nc(N[C@H]2CC[C@@H](C(N)Cc3ccccc3OC(F)(F)F)CC2)nc2c1CCCC2 (relative stereo) [Example 16, N^4,N^4-Dimethyl-N^2-{cis-4-[(2-trifluoromethoxy-benzyl)-amino-methyl]-cyclohexyl}-5,6,7,8-tetrahydro-quinazoline-2,4-diamine dihydrochloride] | – | < 50 nM | –
Cc1cccc(S(=O)(=O)c2ncccc2C(=O)N[C@H]2CC[C@@H](Nc3nc(C)cc(N(C)C)n3)CC2)c1 [Example 3376, N-(cis-4-{[4-(dimethylamino)-6-methylpyrimidin-2-yl]amino}cyclohexyl)-2-[(3-methylphenyl)sulfonyl]nicotinamide] | > 200 nM | – | –
COc1nc(N[C@H]2CC[C@@H](NC(=O)c3ccc(OC(F)(F)F)cc3)CC2)ncc1C [Example 3277, N-{cis-4-[(4-methoxy-5-methylpyrimidin-2-yl)amino]cyclohexyl}-4-(trifluoromethoxy)benzamide] | > 200 nM | – | –
Cc1cc(C(=O)N[C@H]2CC[C@@H](Nc3cc(C)c4ccccc4n3)CC2)ccc1F [Example 3080, 4-Fluoro-3-methyl-N-[cis-4-(4-methyl-quinolin-2-ylamino)-cyclohexyl]-benzamide hydrochloride] | – | < 50 nM | –
Cc1cnc(N[C@H]2CC[C@@H](NC(=O)Nc3c(Cl)cccc3C(F)(F)F)CC2)nc1N(C)C [Example 3344, N-[2-chloro-6-(trifluoromethyl)phenyl]-N′-(cis-4-{[4-(dimethylamino)-5-methylpyrimidin-2-yl]amino}cyclohexyl)urea] | > 200 nM | – | –
